Patent EP0966414B1, “TRIARYLMETHYL FREE RADICALS AS IMAGE ENHANCING AGENTS” (Amersham Health AS, priority 1997, dated 1998)

Test: ESR spectrum linewidth in aqueous solution
Assay type: physicochemical
Details: 100 G, singlet
Procedure: For the method according to the invention the preferred radicals are those which have relatively few transitions, e.g. less than 15, preferably less than 10, in their ESR spectra and radicals having narrow linewidth ESR transitions, e.g. up to 500 mG, preferably less than 150 mG, especially less than 60 mG and particularly less than 25mG, are especially preferred. (The linewidths referred to are conveniently the intrinsic linewidths (full width at half maximum in the absorption spectrum) under ambient conditions).

Substance	ESR linewidth (1.0 mM in H2O)	ESR linewidth (2.5 mM aqueous solution)
Tris (8-carboxyl-2,2,6,6-tetra (2-(1-hydroxy-2.2-d2-ethyl))-benzo[1,2-d:4,5-d']bis(1,3)dithiole -4-yl)methyl sodium salt [Example 21]	70 mg	–
Tris(8-carboxyl-2,2,6,6-tetra(hydroxyethyl)-benzo[1,2-d:4,5-d']bis(1,3)dithiole-4-yl)methyl N,N-bis(1,2-dihydroxyprop-3-yl)-acetamid-2-yl-ester [Example 23]	226 mg	–
Tris (8-carboxymethylthio-2,2,6,6-(2-(1-hydroxyethyl)) benzo[1,2-d:4,5-d']bis(1,3)dithiole-4-yl)methyl sodium salt [Example 9]	–	195 mg
Tris(8-carboxy-2,2,6,6-tetra-(hydroxyethyl)benzo[1,2-d:4,5-d']bis(1,3)dithiole-4-yl)methyl sodium salt [Example 7]	160 mg	–
Tris(8-[N,N-bis(2,3-dihydroxypropyl)aminocarbonylmethylthiol-2,2,6,6-tetra-(2-(1-hydroxyethyl))benzo[1,2-d:4,5-d'] bis(1,3)dithiole-4-yl)methyl [Example 11]	274 mg	–
